# Source: patent US20030171375A1, “Method for treating ocular neovascular diseases” (priority 2002, published 2003)
# Assays:
# [1] = tested on: other RTKs including VEGF receptors; test: standard tyrosine kinase assay, other RTKs; type: biochemical
# [2] = tested on: VEGF receptors; test: cellular autophosphorylation assay, Chinese hamster ovary cells transfected with RTK gene; settings: transfected CHO cells
# Method: (§1) In vivo activity requires drugs to enter cells and therefore agents are tested in cellular autophosphorylation assays, using Chinese hamster ovary cells transfected with one of several RTK genes.
# [3] = tested on: PDGF receptors; test: as above; type: cell-based; settings: transfected CHO cells
# Method: as §1
# [4] = biological target: T1, Flk-1 (Mus musculus, UniProt P35918); test: standard tyrosine kinase assay: phosphorylation of poly(GluTyr) by GST-fusion kinase domain; type: biochemical; settings: kinase inhibitory profile, Table I
# T1 construct: GST-fusion proteins of the kinase domains of several tyrosine kinase receptors; GST
# T1 sequence (P35918 832-1160 limits assumed): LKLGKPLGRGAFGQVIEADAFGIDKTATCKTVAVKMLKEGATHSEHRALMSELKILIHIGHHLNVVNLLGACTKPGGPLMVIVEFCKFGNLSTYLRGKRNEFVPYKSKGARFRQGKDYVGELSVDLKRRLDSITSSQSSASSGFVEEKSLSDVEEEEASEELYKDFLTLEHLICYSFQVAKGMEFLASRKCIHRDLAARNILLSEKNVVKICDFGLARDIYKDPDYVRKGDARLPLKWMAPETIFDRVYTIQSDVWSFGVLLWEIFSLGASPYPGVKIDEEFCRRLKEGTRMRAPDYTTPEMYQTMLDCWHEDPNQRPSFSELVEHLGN
# [5] = biological target: T2, Flt-1 (Homo sapiens, UniProt P17948); test: as above; type: biochemical
# T2 construct: GST-fusion proteins of the kinase domains of several tyrosine kinase receptors; GST
# T2 sequence (P17948 827-1158 limits assumed): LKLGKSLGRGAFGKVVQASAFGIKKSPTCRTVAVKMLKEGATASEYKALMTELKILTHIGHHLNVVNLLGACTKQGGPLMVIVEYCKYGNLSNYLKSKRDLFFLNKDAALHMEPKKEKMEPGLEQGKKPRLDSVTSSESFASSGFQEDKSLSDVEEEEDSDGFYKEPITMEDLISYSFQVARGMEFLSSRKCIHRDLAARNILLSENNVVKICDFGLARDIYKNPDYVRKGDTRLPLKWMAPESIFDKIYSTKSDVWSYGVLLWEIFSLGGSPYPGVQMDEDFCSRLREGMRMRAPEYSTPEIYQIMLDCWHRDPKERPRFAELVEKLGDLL
# [6] = biological target: T3, Tie-2 (Homo sapiens, UniProt Q02763); test: as above; type: biochemical; settings: kinase inhibitory profile
# T3 construct: GST-fusion proteins of the kinase domains of several tyrosine kinase receptors; GST
# T3 sequence (Q02763 824-1096 limits assumed, species assumed): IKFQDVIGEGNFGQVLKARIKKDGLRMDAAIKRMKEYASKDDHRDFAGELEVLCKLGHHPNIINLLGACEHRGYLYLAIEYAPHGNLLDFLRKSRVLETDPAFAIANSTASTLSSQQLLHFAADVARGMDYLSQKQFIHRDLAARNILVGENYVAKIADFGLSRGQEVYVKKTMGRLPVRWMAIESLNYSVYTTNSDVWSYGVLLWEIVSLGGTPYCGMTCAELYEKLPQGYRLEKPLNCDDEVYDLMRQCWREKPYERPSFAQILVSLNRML
# [7] = biological target: T4, C-Met (Homo sapiens, UniProt P08581); test: as above; type: biochemical; settings: kinase inhibitory profile
# T4 construct: GST-fusion proteins of the kinase domains of several tyrosine kinase receptors; GST
# T4 sequence (P08581 1078-1345 limits assumed): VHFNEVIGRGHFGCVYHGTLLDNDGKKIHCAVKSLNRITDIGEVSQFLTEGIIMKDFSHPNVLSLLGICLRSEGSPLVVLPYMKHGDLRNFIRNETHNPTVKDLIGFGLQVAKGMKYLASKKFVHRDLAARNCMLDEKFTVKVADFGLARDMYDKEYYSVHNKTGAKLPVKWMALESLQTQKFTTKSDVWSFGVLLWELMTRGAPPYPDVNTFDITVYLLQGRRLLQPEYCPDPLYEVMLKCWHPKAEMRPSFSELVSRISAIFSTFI
# [8] = tested on: mice with choroidal neovascularization; test: laser-induced choroidal neovascularization in mice; settings: 50 mg/kg/day by gavage, two weeks after laser
# [9] = tested on: retinal vessels in adult mice; test: effect on retinal vessels in adult mice; type: in vivo, C57BL6J mice; settings: 50 mg/kg/day, 5 days
# Method: Ischemic retinopathy is produced in C57/BL6J mice by the following method: Seven-day-old mice and their mothers are placed in an airtight incubator and exposed to an atmosphere of 75±3% oxygen for 5 days. Incubator temperature is maintained at 23±2° C., and oxygen is measured every 8 hours with an oxygen analyzer. After 5 days, the mice are removed from the incubator, placed in room air, and drug treatment is begun. […] Vehicle (control) or vehicle containing various concentrations of drug (volume =50 μl in neonates and 100 μl in adult mice) is placed in the stomach by gavage. After 5 days of treatment at P17, mice are sacrificed, eyes are rapidly removed and frozen in optimum cutting temperature embedding compound (OCT; Miles Diagnostics, Elkhart, IN) or fixed in 10% phosphate-buffered formalin and embedded in paraffin. Adult C57BL6J mice are also treated by gavage with drug or vehicle and after 5 days, they are sacrificed and their eyes are processed for frozen or paraffin sections. […] Slides are rinsed with 0.05M Tris-buffered saline, pH 7.6 (TBS) and incubated 2 hours at room temperature with biotinylated lectin. […] Some slides are counterstained with hematoxyfn and all are mounted with Cytoseal. […] The mean of the 13 measurements from each eye is used as a single experimental value.
# [10] = tested on: mice with ischemic retinopathy; test: retinal neovascularization in mice with oxygen-induced ischemic retinopathy; settings: P17 mice
# Method: Ischemic retinopathy is produced in C57/BL6J mice by the following method: Seven-day-old mice and their mothers are placed in an airtight incubator and exposed to an atmosphere of 75±3% oxygen for 5 days. Incubator temperature is maintained at 23±2° C., and oxygen is measured every 8 hours with an oxygen analyzer. After 5 days, the mice are removed from the incubator, placed in room air, and drug treatment is begun. […] Vehicle (control) or vehicle containing various concentrations of drug (volume =50 μl in neonates and 100 μl in adult mice) is placed in the stomach by gavage. After 5 days of treatment at P17, mice are sacrificed, eyes are rapidly removed and frozen in optimum cutting temperature embedding compound (OCT; Miles Diagnostics, Elkhart, IN) or fixed in 10% phosphate-buffered formalin and embedded in paraffin. Adult C57BL6J mice are also treated by gavage with drug or vehicle and after 5 days, they are sacrificed and their eyes are processed for frozen or paraffin sections.
# Slides are rinsed with 0.05M Tris-buffered saline, pH 7.6 (TBS) and incubated 2 hours at room temperature with biotinylated lectin. […] Some slides are counterstained with hematoxyfn and all are mounted with Cytoseal.
# The entire eye is sampled by staining sections roughly 50-60 μm apart, which provided 13 sections per eye for analysis. […] The mean of the 13 measurements from each eye is used as a single experimental value.
# [11] = biological target: insulin receptor (Homo sapiens, UniProt P06213); test: cellular autophosphorylation assay, Chinese hamster ovary cells transfected with RTK gene; settings: transfected CHO cells
# Sequence of insulin receptor (P06213 28-1382, species assumed): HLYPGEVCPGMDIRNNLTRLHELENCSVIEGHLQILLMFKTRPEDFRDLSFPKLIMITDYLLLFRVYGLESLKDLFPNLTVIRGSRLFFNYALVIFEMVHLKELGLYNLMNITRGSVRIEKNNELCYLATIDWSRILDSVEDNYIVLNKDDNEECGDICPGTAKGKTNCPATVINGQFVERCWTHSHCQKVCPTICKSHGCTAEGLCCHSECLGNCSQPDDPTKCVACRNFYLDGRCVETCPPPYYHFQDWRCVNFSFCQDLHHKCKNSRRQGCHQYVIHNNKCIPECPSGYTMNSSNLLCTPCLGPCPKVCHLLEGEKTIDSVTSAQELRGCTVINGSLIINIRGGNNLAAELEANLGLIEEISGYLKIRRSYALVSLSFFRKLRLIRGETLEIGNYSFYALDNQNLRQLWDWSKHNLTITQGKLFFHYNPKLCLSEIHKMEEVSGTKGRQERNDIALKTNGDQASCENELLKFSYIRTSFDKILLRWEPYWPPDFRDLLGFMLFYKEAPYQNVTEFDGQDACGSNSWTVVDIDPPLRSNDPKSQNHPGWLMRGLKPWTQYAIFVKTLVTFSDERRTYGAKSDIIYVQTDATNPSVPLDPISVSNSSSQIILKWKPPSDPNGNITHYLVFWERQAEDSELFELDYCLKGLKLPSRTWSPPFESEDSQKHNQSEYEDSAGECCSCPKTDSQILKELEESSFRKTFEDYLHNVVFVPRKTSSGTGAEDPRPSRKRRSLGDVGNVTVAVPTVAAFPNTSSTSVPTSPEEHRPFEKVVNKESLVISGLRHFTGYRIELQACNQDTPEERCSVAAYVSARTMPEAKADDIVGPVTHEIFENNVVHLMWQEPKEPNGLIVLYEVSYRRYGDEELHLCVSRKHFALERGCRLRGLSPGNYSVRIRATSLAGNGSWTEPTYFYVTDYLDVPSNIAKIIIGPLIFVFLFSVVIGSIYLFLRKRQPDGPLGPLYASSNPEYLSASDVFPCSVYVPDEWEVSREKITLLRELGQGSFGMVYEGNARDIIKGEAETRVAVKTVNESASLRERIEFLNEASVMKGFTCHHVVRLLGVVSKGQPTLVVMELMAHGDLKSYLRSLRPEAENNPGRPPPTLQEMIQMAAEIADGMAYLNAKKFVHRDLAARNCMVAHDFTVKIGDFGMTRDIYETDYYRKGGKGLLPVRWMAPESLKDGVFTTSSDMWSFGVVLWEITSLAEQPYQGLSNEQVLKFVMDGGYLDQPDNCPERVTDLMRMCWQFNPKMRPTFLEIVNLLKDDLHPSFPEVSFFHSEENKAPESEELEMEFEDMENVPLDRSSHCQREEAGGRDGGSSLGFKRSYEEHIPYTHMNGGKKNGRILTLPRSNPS
# Method: as §1
# [12] = tested on: developing retinal vessels of neonatal mice; test: drug treatment of mice during retinal vascular development; type: in vivo, C57/BL6J mice
# Method: […] of newborn C57/BL6J mice are divided into treatment and control groups which received daily subcutaneous injections of 10 mg/kg of drug or vehicle, respectively. At P7 or P10, mice are anesthetized with ether, and perfused with 1 ml of phosphate-buffered saline containing 50 mg/ml of fluorescein-labeled dextran (2×10^6 average mw, Sigma, St. Louis, Mo.).. The eyes are removed and fixed for 1 hour in 10% phosphate-buffered formalin. The cornea and […] are removed and the entire retina is carefully dissected from the eyecup, radially cut from the edge of the retina to the equator in all 4 quadrants, and flat-mounted in Aquamount. with photoreceptors facing upward.
# [13] = biological target: c-erbB2 (Homo sapiens, UniProt P04626); test: cellular autophosphorylation assay, Chinese hamster ovary cells transfected with RTK gene; settings: transfected CHO cells
# Sequence of c-erbB2 (P04626 23-1255): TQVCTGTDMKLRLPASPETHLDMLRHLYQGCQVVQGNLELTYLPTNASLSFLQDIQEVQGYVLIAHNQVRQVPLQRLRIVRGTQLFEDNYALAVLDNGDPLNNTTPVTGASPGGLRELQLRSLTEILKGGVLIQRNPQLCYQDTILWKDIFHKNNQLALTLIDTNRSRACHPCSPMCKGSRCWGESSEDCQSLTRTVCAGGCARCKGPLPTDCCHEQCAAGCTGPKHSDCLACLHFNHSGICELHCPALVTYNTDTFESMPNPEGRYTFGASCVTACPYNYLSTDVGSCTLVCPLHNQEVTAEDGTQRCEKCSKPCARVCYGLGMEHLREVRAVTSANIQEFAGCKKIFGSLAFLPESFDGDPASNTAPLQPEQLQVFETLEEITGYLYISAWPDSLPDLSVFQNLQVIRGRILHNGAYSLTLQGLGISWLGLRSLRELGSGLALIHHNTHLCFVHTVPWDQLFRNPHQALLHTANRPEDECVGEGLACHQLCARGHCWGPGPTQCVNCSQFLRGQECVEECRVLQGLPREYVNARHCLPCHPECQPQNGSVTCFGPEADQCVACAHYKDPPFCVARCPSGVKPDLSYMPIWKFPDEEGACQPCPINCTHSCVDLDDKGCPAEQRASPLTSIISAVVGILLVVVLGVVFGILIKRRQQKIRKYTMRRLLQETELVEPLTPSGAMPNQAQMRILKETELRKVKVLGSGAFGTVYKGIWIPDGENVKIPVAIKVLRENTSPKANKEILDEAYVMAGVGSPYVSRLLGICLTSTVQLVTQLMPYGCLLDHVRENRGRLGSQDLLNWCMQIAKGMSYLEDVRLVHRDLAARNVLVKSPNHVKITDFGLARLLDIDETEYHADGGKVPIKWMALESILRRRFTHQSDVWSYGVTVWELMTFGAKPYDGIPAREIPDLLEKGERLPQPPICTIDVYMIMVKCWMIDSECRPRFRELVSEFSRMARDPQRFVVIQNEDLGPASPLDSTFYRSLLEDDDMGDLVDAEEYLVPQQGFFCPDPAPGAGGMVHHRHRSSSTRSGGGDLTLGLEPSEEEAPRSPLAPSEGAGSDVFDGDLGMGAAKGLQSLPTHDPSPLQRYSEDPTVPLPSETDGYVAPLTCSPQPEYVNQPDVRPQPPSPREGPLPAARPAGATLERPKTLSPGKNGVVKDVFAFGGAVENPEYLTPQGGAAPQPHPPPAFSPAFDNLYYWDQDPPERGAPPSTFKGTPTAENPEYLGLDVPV
# Method: as §1
# [14] = biological target: c-Kit (Homo sapiens, UniProt P10721); settings: transfected CHO cells
# Sequence of c-Kit (P10721 26-976): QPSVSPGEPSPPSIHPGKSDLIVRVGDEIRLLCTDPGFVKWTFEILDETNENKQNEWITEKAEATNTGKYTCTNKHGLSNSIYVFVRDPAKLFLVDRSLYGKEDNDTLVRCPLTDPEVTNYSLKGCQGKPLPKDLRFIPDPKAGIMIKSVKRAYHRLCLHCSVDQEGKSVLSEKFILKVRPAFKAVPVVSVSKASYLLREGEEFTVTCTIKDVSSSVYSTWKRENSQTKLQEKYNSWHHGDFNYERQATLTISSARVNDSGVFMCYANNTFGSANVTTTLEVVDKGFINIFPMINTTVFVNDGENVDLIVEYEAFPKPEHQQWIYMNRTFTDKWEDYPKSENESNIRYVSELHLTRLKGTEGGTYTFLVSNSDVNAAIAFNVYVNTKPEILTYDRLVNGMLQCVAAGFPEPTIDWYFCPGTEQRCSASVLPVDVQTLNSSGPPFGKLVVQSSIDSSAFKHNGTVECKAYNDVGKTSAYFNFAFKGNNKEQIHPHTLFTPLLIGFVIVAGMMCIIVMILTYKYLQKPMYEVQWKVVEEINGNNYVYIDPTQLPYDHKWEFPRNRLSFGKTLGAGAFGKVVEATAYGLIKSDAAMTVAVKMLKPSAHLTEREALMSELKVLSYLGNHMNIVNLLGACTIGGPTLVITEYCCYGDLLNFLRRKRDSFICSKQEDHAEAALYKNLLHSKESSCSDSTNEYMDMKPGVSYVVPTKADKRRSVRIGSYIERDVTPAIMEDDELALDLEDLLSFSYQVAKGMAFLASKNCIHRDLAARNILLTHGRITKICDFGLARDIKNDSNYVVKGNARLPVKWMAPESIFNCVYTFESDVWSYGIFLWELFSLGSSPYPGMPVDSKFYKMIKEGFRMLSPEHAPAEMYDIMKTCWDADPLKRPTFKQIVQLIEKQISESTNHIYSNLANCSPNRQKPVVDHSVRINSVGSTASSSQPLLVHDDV
smiles,measurement,setting,value
Cc1ccc(NC(=O)c2ccc(CN3CCN(C)CC3)cc2)cc1Nc1nccc(-c2cccnc2)n1 [CGP 57 148B],inhibitory activity on other RTKs including VEGF receptors,[1],little or no inhibitory activity
same,inhibition of autophosphorylation of VEGF receptors,[2],poor inhibitors
same,inhibition of autophosphorylation of PDGF receptors,[3],potent inhibitors
Cc1ccc(NC(=O)c2ccccc2)cc1Nc1nccc(-c2cccnc2)n1 [CGP 53 716],inhibitory activity on other RTKs including VEGF receptors,[1],little or no inhibitory activity
same,IC50,[4],> 1000 nM
same,IC50,[5]; kinase inhibitory profile,> 1000 nM
same,inhibition of autophosphorylation of VEGF receptors,[2],poor inhibitors
same,inhibition of autophosphorylation of PDGF receptors,[3],potent inhibitors
same,IC50,[6],> 1000 nM
same,IC50,[7],> 10000 nM
Clc1ccc(Nc2nnc(Cc3ccncc3)c3ccccc23)cc1 [CGP 79787D],appearance of overlying retinal vessels,[8],appeared normal
same,choroidal neovascularization at site of laser-induced rupture of Bruch's membrane,[8],very little if any choroidal neovascularization
same,total area of endothelial staining in the retina or appearance of retinal vessels versus vehicle,[9],no difference
same,inhibition of phosphorylation by kinase domain of human VEGF receptor 1,[5],good inhibitor
same,decrease of total endothelial staining in the retina,[10]; 0.25 mg/kg,not statistically significant
same,staining in the inner nuclear layer,[10]; 0.25 mg/kg,no identifiable decrease
same,endothelial cell staining in the retina,[10]; 2.5 mg/kg twice a day,significantly less than vehicle-treated controls
same,endothelial staining in the inner nuclear layer,[10]; 2.5 mg/kg twice a day,some decrease
same,endothelial cell staining in inner nuclear layer and outer plexiform layer (deep capillary bed),[10]; 25 mg/kg twice a day,striking absence
same,neovascularization (endothelial cells on the surface of the retina),"[10]; 25 mg/kg twice a day, gavage, 5 days",complete inhibition
same,endothelial cell staining within the retina,"[10]; 25 mg/kg twice a day, gavage, 5 days, versus vehicle",dramatic decrease
same,inhibition of autophosphorylation of VEGF receptors,[2],inhibits
same,inhibition of autophosphorylation of insulin receptor,[11],poor inhibitor
same,inhibition of autophosphorylation of PDGF receptors,[3],inhibits
same,extension of retinal vessels toward the periphery at P7,"[12]; 10 mg/kg daily injections from P0, P7",only extended about half way to the periphery
same,extension of superficial capillary bed at P10,"[12]; 10 mg/kg daily injections from P0, P10",has not yet reached the edge of the retina
same,inhibition of autophosphorylation of c-erbB2,[13],poor inhibitor
same,inhibition of autophosphorylation of c-Kit,[14],inhibits
